Data on 18 compounds can be found in patent US20250228239A1, “MOLECULES HAVING PESTICIDAL UTILITY, AND INTERMEDIATES, COMPOSITIONS, AND PROCESSES, RELATED THERETO” (priority 2024, published 2025).

What all share (format): in vivo
Experiment [1] relates to Cabbage Looper (Trichoplusia ni, TRIPNI). Nature of the experiment: Bioassays on Cabbage Looper (CL), 128-well diet tray assay. Conditions: Trichoplusia ni. In outline:
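Second-instar larvae (1–5 per well) placed on artificial diet surface-treated with 50 μg/cm^2 test molecule applied in 90:10 acetone-water and dried. Held at 25° C., 14:10 light-dark, for five to seven days. Percent mortality scored per well and averaged over eight wells.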

In experiment [2] the test system is Beet Armyworm (Spodoptera exigua, LAPHEG). Nature of the experiment: Bioassays on Beet Armyworm (BAW), 128-well diet tray assay. Conditions: Spodoptera exigua. The essentials:
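Percent larval mortality, averaged across eight wells, scored after five to seven days at 25° C. under 14:10 light-dark. Each well held one to five second instars feeding on diet dosed at 50 μg/cm^2 with compound from 90:10 acetone-water, solvent dried off.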

Experiment [3] relates to Yellow Fever Mosquito (Aedes aegypti, AEDSAE). Conditions: for YFM rating: Table ABC / ABC-DP rating. The essentials: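 Rating-scale grades reflect larval mortality scored per well after 3 days at room temperature under non-evaporative lids. Larvae (~1 day old, hatched overnight in liver-powder water) were added to six daughter plates per compound, prepared from a 4000 ppm DMSO stock diluted in 90:10 water/acetone.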

The mark [4] stands for this setting: Cabbage Looper, rating class, read-out: CL.
[5] abbreviates: Beet Armyworm, rating class, read-out: BAW.
Setting [6] is: Yellow Fever Mosquito, rating class.
[7] abbreviates: Table ABC: Biological Results, species CL, read-out: CL.
The mark [8] stands for this setting: Table ABC: Biological Results, species BAW, read-out: BAW.
The mark [9] stands for this setting: Table ABC: Biological Results, species YFM.
[10] abbreviates: Cabbage Looper, Table ABC / ABC-DP rating, read-out: CL rating.
The mark [11] stands for this setting: Beet Armyworm, Table ABC / ABC-DP rating, read-out: BAW rating.

Like-named read-outs stand apart in the source and are kept apart here.

`O=C(Nc1c(F)ccc(NC(=O)C(F)(F)F)c1F)c1cc(NC(=O)[C@H]2[C@H](c3cc(Cl)c(Cl)c(Cl)c3)C2(Cl)Cl)ccc1F` [F1554, 5-((1R,3R)-2,2-Dichloro-3-(3,4,5-trichlorophenyl)cyclopropane-1-carboxamido)-N-(2,6-difluoro-3-(2,2,2-trifluoroacetamido)phenyl)-2-fluorobenzamide]: the pest or weed control at 50 µg/cm2 in experiment [1] (setting [4]) and in experiment [2] (setting [5]) was 50 to 100% each time. Further, the YFM result in experiment [3] (setting [6]) is listed as “A (80–100)”.
Consider `CCOCC(=O)Nc1c(F)ccc(NC(=O)c2cc(NC(=O)[C@H]3[C@H](c4ccc(F)c(C(F)(F)F)c4)C3(Cl)Cl)ccc2Cl)c1F` [F1363, 2-Chloro-5-((1R,3R)-2,2-dichloro-3-(4-fluoro-3-(trifluoromethyl)phenyl)cyclopropane-1-carboxamido)-N-(3-(2-ethoxyacetamido)-2,4-difluorophenyl)benzamide], for which the pest or weed control at 50 µg/cm2 in experiment [1] (setting [7]) and in experiment [2] (setting [8]) was 50 to 100% in each case. Besides, the YFM entry in experiment [3] (setting [9]) is on record as “A (80–100)”.
Regarding `CC(F)(F)C(=O)Nc1c(F)ccc(NC(=O)c2cc(NC(=O)[C@H]3[C@H](c4ccc(Cl)c(Cl)c4)C3(Cl)Cl)ccc2Cl)c1F` [F1249, 2-Chloro-5-((1R,3R)-2,2-dichloro-3-(3,4-dichlorophenyl)cyclopropane-1-carboxamido)-N-(3-(2,2-difluoropropanamido)-2,4-difluorophenyl)benzamide], the pest or weed control at 50 µg/cm2 in experiment [1] (setting [7]) and in experiment [2] (setting [8]) was 50 to 100% in each case. Moreover, in experiment [3] (setting [9]), the YFM entry is reported as “A (80–100)”.
As for `O=C1CC(C(=O)Nc2c(F)ccc(NC(=O)c3cc(NC(=O)[C@H]4[C@H](c5ccc(F)c(C(F)(F)F)c5)C4(Cl)Cl)ccc3Cl)c2F)C1` [F1303, 2-Chloro-5-((1R,3R)-2,2-dichloro-3-(4-fluoro-3-(trifluoromethyl)phenyl)cyclopropane-1-carboxamido)-N-(2,4-difluoro-3-(3-oxocyclobutane-1-carboxamido)phenyl)benzamide], the pest or weed control at 50 µg/cm2 in experiment [1] (setting [7]) and in experiment [2] (setting [8]) was 50 to 100% each time. Further, the YFM entry in experiment [3] (setting [9]) was “A (80–100)”.
Turning to `O=C(Nc1ccc(F)c(NC(=O)C(F)F)c1F)c1cc(NC(=O)[C@H]2[C@H](c3ccc(Cl)cc3)C2(Cl)Cl)ccc1Cl` (relative stereo) [F1599, trans-2-Chloro-5-(2,2-dichloro-3-(4-chlorophenyl)cyclopropane-1-carboxamido)-N-(3-(2,2-difluoroacetamido)-2,4-difluorophenyl)benzamide], the pest or weed control at 50 µg/cm2 in experiment [1] (setting [4]) and in experiment [2] (setting [5]) was 50 to 100% throughout. Moreover, the YFM result in experiment [3] (setting [6]) is reported as “A (80–100)”.
In the case of `N#CCC(=O)Nc1c(F)ccc(NC(=O)c2cc(NC(=O)[C@H]3[C@H](c4ccc(F)c(C(F)(F)F)c4)C3(Cl)Cl)ccc2Cl)c1F` [F1369, 2-Chloro-N-(3-(2-cyanoacetamido)-2,4-difluorophenyl)-5-((1R,3R)-2,2-dichloro-3-(4-fluoro-3-(trifluoromethyl)phenyl)cyclopropane-1-carboxamido)benzamide], the pest or weed control at 50 µg/cm2 in experiment [1] (setting [7]) and in experiment [2] (setting [8]) was 50 to 100% in each case. Besides, in experiment [3] (setting [9]), the YFM result is listed as “A (80–100)”.
Take `CCC1CCC(C(=O)Nc2c(F)ccc(NC(=O)c3cc(NC(=O)[C@H]4[C@H](c5ccc(F)c(C(F)(F)F)c5)C4(Cl)Cl)ccc3Cl)c2F)O1` (stereo partly drawn) [F1626, N-(3-(2-Chloro-5-((1R,3R)-2,2-dichloro-3-(4-fluoro-3-(trifluoromethyl)phenyl)cyclopropane-1-carboxamido)benzamido)-2,6-difluorophenyl)-5-ethyltetrahydrofuran-2-carboxamide]: the pest or weed control at 50 µg/cm2 in experiment [1] (setting [4]) and in experiment [2] (setting [5]) was 50 to 100% throughout. The YFM entry in experiment [3] (setting [6]) is listed as “A (80–100)”.
For `Cc1cc(NCc2ccc(C#N)cc2)ccc1NC(=O)c1cc(NC(=O)[C@H]2[C@H](c3cc(Cl)cc(Cl)c3)C2(Cl)Cl)ccc1Cl` (relative stereo) [F1040, trans-2-Chloro-N-(4-((4-cyanobenzyl)amino)-2-methylphenyl)-5-(2,2-dichloro-3-(3,5-dichlorophenyl)cyclopropane-1-carboxamido)benzamide], the pest or weed control at 50 µg/cm2 in experiment [1] (setting [7]) and in experiment [2] (setting [8]) was 50 to 100% throughout. In experiment [3] (setting [9]), the YFM entry is “A (80–100)”.
`Cc1cc(NC(=O)[C@H]2[C@H](c3ccc(F)c(Cl)c3)C2(Cl)Cl)cc(C(=O)NCC(F)(F)C(F)(F)F)c1F` (relative stereo) [F2031, trans-5-(2,2-Dichloro-3-(3-chloro-4-fluorophenyl)cyclopropane-1-carboxamido)-2-fluoro-3-methyl-N-(2,2,3,3,3-pentafluoropropyl)benzamide]: the pest or weed control at 50 µg/cm2 in experiment [1] (setting [10]) and in experiment [2] (setting [11]) was 50 to 100% each time. Also, the YFM rating result in experiment [3] (Yellow Fever Mosquito) is listed as “A (80–100)”.
Take `CC(=O)Nc1c(F)ccc(NC(=O)c2cc(NC(=O)[C@H]3[C@H](c4cc(Cl)c(Cl)c(Cl)c4)C3(Cl)Cl)ccc2F)c1F` [F1528, N-(3-Acetamido-2,4-difluorophenyl)-5-((1R,3R)-2,2-dichloro-3-(3,4,5-trichlorophenyl)cyclopropane-1-carboxamido)-2-fluorobenzamide]: the pest or weed control at 50 µg/cm2 in experiment [1] (setting [4]) and in experiment [2] (setting [5]) was 50 to 100% in each case. Moreover, the YFM result in experiment [3] (setting [6]) is given as “B (More than 0 – Less than 80)”.
On to `C=CCC(=O)Nc1c(F)ccc(NC(=O)c2cc(NC(=O)[C@H]3[C@H](c4ccc(F)c(Cl)c4)C3(Cl)Cl)ccc2Cl)c1F` [F1876, N-(3-(But-3-enamido)-2,4-difluorophenyl)-2-chloro-5-((1R,3R)-2,2-dichloro-3-(3-chloro-4-fluorophenyl)cyclopropane-1-carboxamido)benzamide], for which the pest or weed control at 50 µg/cm2 in experiment [1] (setting [10]) and in experiment [2] (setting [11]) was 50 to 100% throughout. In experiment [3] (Yellow Fever Mosquito), the YFM rating result is on record as “A (80–100)”.
For `C=Cc1cc(F)cc(F)c1NC(=O)c1cc(NC(=O)[C@H]2[C@H](c3cc(Cl)cc(Cl)c3)C2(Cl)Cl)ccc1Cl` (relative stereo) [F1316, trans-2-Chloro-5-(2,2-dichloro-3-(3,5-dichlorophenyl)cyclopropane-1-carboxamido)-N-(2,4-difluoro-6-vinylphenyl)benzamide], the pest or weed control at 50 µg/cm2 in experiment [1] (setting [7]) and in experiment [2] (setting [8]) was 50 to 100% in each case. In experiment [3] (setting [9]), the YFM result is listed as “A (80–100)”.
For the compound `CCOC(=O)C(F)(F)CNC(=O)c1cc(NC(=O)[C@H]2[C@H](c3cc(Cl)cc(Cl)c3)C2(Cl)Cl)cc(F)c1Cl` (relative stereo) [F2089, trans-Ethyl 3-(2-chloro-5-(2,2-dichloro-3-(3,5-dichlorophenyl)cyclopropane-1-carboxamido)-3-fluorobenzamido)-2,2-difluoropropanoate], the pest or weed control at 50 µg/cm2 in experiment [1] (setting [10]) and in experiment [2] (setting [11]) was 50 to 100% in each case. Moreover, the YFM rating entry in experiment [3] (Yellow Fever Mosquito) was “A (80–100)”.
`CN(NC(=O)c1cc(NC(=O)[C@H]2[C@H](c3ccc(F)c(Cl)c3)C2(Cl)Cl)ccc1Cl)c1ccccc1` [F2512, (1R,3R)-2,2-Dichloro-N-(4-chloro-3-(2-methyl-2-phenylhydrazine-1-carbonyl)phenyl)-3-(3-chloro-4-fluorophenyl)cyclopropane-1-carboxamide]: the pest or weed control at 50 µg/cm2 in experiment [1] (setting [10]) and in experiment [2] (setting [11]) was 50 to 100% in each case. Moreover, the YFM rating result in experiment [3] (Yellow Fever Mosquito) is on record as “A (80–100)”.
`Nc1c(F)ccc(NC(=O)c2cc(NC(=O)[C@H]3[C@H](c4cc(Cl)cc(C(F)F)c4)C3(Cl)Cl)ccc2Cl)c1F` (relative stereo) [F1038, trans-N-(3-Amino-2,4-difluorophenyl)-2-chloro-5-(2,2-dichloro-3-(3-chloro-5-(difluoromethyl)phenyl)cyclopropane-1-carboxamido)benzamide]: the pest or weed control at 50 µg/cm2 in experiment [1] (setting [7]) and in experiment [2] (setting [8]) was 50 to 100% in each case. Also, the YFM entry in experiment [3] (setting [9]) is recorded as “A (80–100)”.
For the compound `N#Cc1cc(NC(=O)c2cc(NC(=O)[C@H]3[C@H](c4ccc(F)c(Cl)c4)C3(Cl)Cl)ccc2Cl)ccc1N` (relative stereo) [F1387, trans-N-(4-Amino-3-cyanophenyl)-2-chloro-5-(2,2-dichloro-3-(3-chloro-4-fluorophenyl)cyclopropane-1-carboxamido)benzamide], the pest or weed control at 50 µg/cm2 in experiment [1] (setting [7]) and in experiment [2] (setting [8]) was 50 to 100% each time. Besides, the YFM entry in experiment [3] (setting [9]) was “A (80–100)”.
Regarding `CC(=O)Nc1ccc(NC(=O)c2cc(NC(=O)[C@H]3[C@H](c4ccc(F)c(Cl)c4)C3(Cl)Cl)cc(C)c2F)cc1` (relative stereo) [F1139, trans-N-(4-Acetamidophenyl)-5-(2,2-dichloro-3-(3-chloro-4-fluorophenyl)-cyclopropane-1-carboxamido)-2-fluoro-3-methylbenzamide], the pest or weed control at 50 µg/cm2 in experiment [1] (setting [7]) and in experiment [2] (setting [8]) was 50 to 100% in each case. Further, the YFM entry in experiment [3] (setting [9]) is recorded as “A (80–100)”.
For `CC(C)(C)OC(=O)Nc1c(F)ccc(NC(=O)c2cc(NC(=O)[C@H]3[C@H](c4cc(Cl)cc(Cl)c4)C3(F)F)ccc2Cl)c1F` (relative stereo) [F1070, trans-tert-Butyl (3-(2-chloro-5-(3-(3,5-dichlorophenyl)-2,2-difluorocyclopropane-1-carboxamido)benzamido)-2,6-difluorophenyl)carbamate], the pest or weed control at 50 µg/cm2 in experiment [1] (setting [7]) and in experiment [2] (setting [8]) was 50 to 100% each time. The YFM entry in experiment [3] (setting [9]) is “A (80–100)”.
